The structures appear in SMILES notation.

The first experiment deals with T1, SARS-CoV-2 PLpro (Severe acute respiratory syndrome coronavirus 2, UniProt P0DTD1). Kind of experiment: biochemical. The note with it: read-out: PLpro % inhibition at 10 µM.
Consider `COc1ccc(SC2=C(Sc3ccc(OC)cc3)C(=O)c3ccccc3C2=O)cc1` [compound 382], for which the inhibition at 10 µM was 0%.
On the same count and under the same terms, the value for `CC1(C)OC2=C(C(=O)C(=O)c3ccccc32)C1n1cc(-c2ccccc2)nn1` (stereo not shown) [compound 159] was 100 ± 1%; that for `CC(=O)c1ccc(N(Cc2cn(S(=O)(=O)c3ccc(C)cc3)nn2)C2=CC(=O)c3ccccc3C2=O)cc1` [compound 318] was 9 ± 5%; that for `O=C1C(Sc2ccccc2)=C(Sc2ccccc2)C(=O)c2ccccc21` [compound 379] was 0%.
Same read-out and setting: the value for `CC(=O)NC1=CC(=O)c2cccc(O)c2C1=O` [compound 414, 414] was 38 ± 2%; that for `CC1(C)OC2=C(C(=O)C(=O)c3ccccc32)C1n1cc(CNC2=C(Br)C(=O)c3ccccc3C2=O)nn1` (stereo not shown) [compound 191] was 93 ± 0.7%.
In the case of `O=C1C(Sc2ccc(Br)cc2)=C(Sc2ccc(Br)cc2)C(=O)c2ccccc21` [compound 380, 380], the inhibition at 10 µM came to 12 ± 6%.
Regarding `CC1(C)OC2=C(C(=O)C(=O)c3ccccc32)C1n1cc(CNC2=CC(=O)c3ccccc3C2=O)nn1` (stereo not shown) [compound 189], the inhibition at 10 µM worked out at 100%.
Consider `Cc1ccc(S(=O)(=O)n2cc(CNC3=C(Cl)C(=O)c4ccccc4C3=O)nn2)cc1` [compound 320, 320], for which the inhibition at 10 µM was 31 ± 6%.
Same read-out and setting: in the case of `CC1(C)CC2=C(O1)c1ccccc1C(=NNc1ccccc1)C2=O` [compound 673, 673] it was 4 ± 4%; in that of `Cc1ccc(S(=O)(=O)n2cc(CNC3=C(Br)C(=O)c4ccccc4C3=O)nn2)cc1` [compound 321, 321], 17 ± 0.2%; in that of `Cc1ccc(S(=O)(=O)c2cccc3c2C(=O)c2ccccc2C3=O)cc1` [compound 477, 477], 0%.
`CC1(C)OC2=C(CC1Br)C(=O)C(=NNc1ccccc1)c1ccccc12` (stereo not shown) [compound 666, 666]: the inhibition at 10 µM was found to be 0%.

The target of the next experiment is T1, SARS-CoV-2 PLpro. Description: fluorogenic Z-RLRGG-AMC cleavage assay. The experiment is classed as biochemical. The settings on record: read-out: % inhibition at 10 μM.
In the case of `Cc1ccc(S(=O)(=O)n2cc(CNC3=CC(=O)c4ccccc4C3=O)nn2)cc1` [compound 319, 319], the inhibition at 10 µM is 69 ± 3%.
With `Cc1ccc(S(=O)(=O)n2cc(CN(C3=CC(=O)c4ccccc4C3=O)c3ccc(Br)cc3)nn2)cc1` [compound 314, 314], the inhibition at 10 µM was 55 ± 7%.
Take `CC(=O)NC1=CC(=O)c2c(cccc2[N+](=O)[O-])C1=O` [compound 415, 415]: the inhibition at 10 µM worked out at 63 ± 9%.

Broadly, the inhibition is the percentage by which the read-out fell short of the control.

These data come from article doi:10.1101/2022.01.05.475095v1 (biorxiv, 2022).
